From US20250262331A1, “COMPOSITION AND METHODS FOR IMPROVING SIGNS AND SYMPTOMS OF OCULAR DISORDERS” (Azura Ophthalmics Ltd., priority 2022, published 2025)

Test system: sebaceous cells
Test: Preclinical sebum production in sebaceous cells
Type: cell-based
Conditions: preclinical data; lower effect observed at higher concentrations

## S=[Se]=S [selenium disulfide]
  effect on sebum production in sebaceous cells: non-linear dose response
